Data set [1] relates to B-CLL cells. Briefly: formazane reduction assay (MMT test), cytotoxicity after 24 h incubation of the patient's blood. The format is cell-based, human. The method, then:
Compounds according to the invention were tested as inductors of a cytotoxic reaction, i.e. triggering of apoptosis, in the case of chronic lymphatic leukemia (B-CLL).
Fludarabine, which is used in B-CLL as a standard chemotherapeutic agent, was employed as a positive control. A cytotoxicity up to a maximum of 60% was achievable under equal test conditions.
The cytotoxicity of the B-CLL cells was determined by means of a commercially available formazane reduction assay (MMT test) after 24 h of incubation of the patient's blood with the active substances.

In data set [2] the test system is B-CLL cells. Description: cytotoxicity / vitality of purified primary B-CLL cells (CellTiter-Glo ATP assay, resazurine vitality test), 72 h. The format is cell-based. As to conditions: Homo sapiens; leukemic B lymphocytes of a B-CLL patient with an 11q deletion (FIG. 1). From the text:
In order to check the selective effect of various substances as to the vitality of human cells, isolated B cells from patients suffering from chronic B cell leukemia (B-CLL) and also purified […] (PBMC) and erythrocytes from healthy donors were investigated. The permanent human EHEB B-CLL cell line was selected as a model system for the chronic lymphatic B cell leukemia. It is known in the literature that as compared to primary B-CLL cells the EHEB cells respond in a much more insensitive fashion to proapoptotic signals. The cells were incubated with concentration series of the test substances for 3 days and the vitality of the cells was determined by means of CellTiter-Glo™ ATP assay (Promega, catalog number G7571) according to the manufacturer's instructions after this period.
Primary tumor cells are isolated from whole blood by means of density gradient centrifugation. To this end, the patient's whole blood is incubated with 50.0 μl human B cell enrichment cocktail (RosetteSep; Stem Cell Technology, Cat #15064) per milliliter whole blood at room temperature (RT) for 20 min. […] Having determined the cell number by means of trypan blue staining (trypan blue solution of Sigma-Aldrich, catalog no. T-8154) the desired number of test plates can be prepared. […]
Background: Cellular ATP, detected with luciferase, serves as a proxy for viable cell number.

The next data set concerns caspases 3, 7 and 9. Description: caspase-Glo 3/7 and caspase-Glo 9 assays in EHEB cells. As to conditions: 4.5 and 24 hours (FIG. 2). The format is cell-based, human. The method, then:
In order to determine the specific induction of programmed cell death (apoptosis), a detection thereof was carried out by means of caspase-3/7 activity; the caspase-3/7 activity is described in the literature as a safe detection of apoptosis.
The EHEB cells were prepared as described above and incubated with three concentration dilutions, each in triple determination, for 4.5 and 24 hours. Thus, substance final concentrations were selected from 50.0, 10.0 and 2.00 μM for the 4 hour batches as well as 10.0, 1.00 and 0.50 μM for the 24 hour batches. In this connection, staurosporine in a final concentration of 2.00 μM (4 hour batches) and 0.50 μM (24 hour batches) acted as the positive control. In order to detect the caspase-3/7 activity, the caspase-Glo 3/7 and caspase-Glo 9 assays of Promega company were used; in this connection, the enzyme activity was determined by means of a luminescence signal which was recorded with the FluostarOPTIMA measurement device (BMG Labtechnologies).
The results were evaluated by a comparison between the relative luminescence intensity of the test substances and the positive control (staurosporine=100%) by means of the Excel program. The relative intensities for the substances according to the invention are up to 100% with an inhibitor concentration between 1 and 50 μM. […]

The test system of data set [3] is B-CLL cells. Briefly: synergistic effect with fludarabine on induction of apoptosis in purified B-CLL cells. The format is cell-based, human. The text has this:
As shown, a combination of an exemplary substance according to the invention with fludarabine already yields a total toxicity of the B-CLL cells of over 80% with a 10% toxic concentration of each partner. In the case of an additive effect of both substances, only about 20% toxicity could be expected. If the concentration of both substances is increased such that each substance kills 20% of the cells in a separate test, a toxicity of almost 100% is obtained in this synergy experiment.

Where two headings read alike, the source gives them in different places.

With `CCOc1nc(N2CCNCC2)nc2c1[nH]c1cc(-c3ccc(N)nc3)ccc12` [4-ethoxy-2-(piperazin-1-yl)-7-(2-aminopyridin-5-yl)-5H-pyrimido[5,4-b]indole], in the data set on B-CLL cells [1], the “cytotoxicity (apoptosis) of the leukemia cells, maximum reached” value (shortened to “cytotoxicity (apoptosis)”) is listed as “up to 100%”.

`CCOc1nc(N2CCNCC2)nc2c1[nH]c1ccc(-c3ccncc3)cc12` [4-ethoxy-2-(piperazin-1-yl)-8-(pyridin-4-yl)-5H-pyrimido[5,4-b]indole]: the “cytotoxicity (apoptosis)” value in the data set with B-CLL cells [1] is recorded as “up to 100%”.

`CCOc1nc(N2CCNCC2)nc2c1[nH]c1cc(-c3ccc(C(=O)O)cc3)ccc12.Cl` [4-(4-ethoxy-2-(piperazin-1-yl)-5H-pyrimido[5,4-b]indol-7-yl)benzoic acid hydrochloride]: the “cytotoxicity (apoptosis)” value with B-CLL cells [1] was “up to 100%”.

For `CCOC(=O)c1ccc(-c2ccc3c(c2)[nH]c2c(OCC)nc(N4CCNCC4)nc23)cc1` [4-(4-ethoxy-2-(piperazin-1-yl)-5H-pyrimido[5,4-b]indol-7-yl)benzoic acid ethyl ester], in the data set on B-CLL cells [1], the “cytotoxicity (apoptosis)” value is “up to 100%”.

In the case of `CCOc1nc(N2CCNCC2)nc2c1[nH]c1cc(-c3ccncc3)cc(OC)c12` [4-ethoxy-9-methoxy-2-(piperazin-1-yl)-7-(pyridin-4-yl)-5H-pyrimido[5,4-b]indole], in the data set on B-CLL cells [1], the “cytotoxicity (apoptosis)” value is given as “up to 100%”.

As for `CCOc1nc(N2CCNCC2)nc2c1[nH]c1cc(-c3cccc(C(=O)OC)c3)ccc12` [3-(4-ethoxy-2-(piperazin-1-yl)-5H-pyrimido[5,4-b]indol-7-yl)benzoic acid methyl ester], in the data set on B-CLL cells [1], the “cytotoxicity (apoptosis)” value is listed as “up to 100%”.

With `CCOc1nc(N2CCNCC2)nc2c1[nH]c1c(-c3ccncc3)cccc12` [Example 8, 4-ethoxy-2-(piperazin-1-yl)-6-(pyridin-4-yl)-5H-pyrimido[5,4,-b]indole], the “cytotoxicity (apoptosis)” value with B-CLL cells [1] is reported as “up to 100%”.

Broadly, the IC50 is the midpoint of a concentration-inhibition curve. Read a low IC50 as greater potency in that assay. For the compound `CCOc1nc(N2CCNCC2)nc2c1[nH]c1cc(-c3ccncc3)ccc12` [4-ethoxy-2-(piperazin-1-yl)-7-(pyridin-4-yl)-5H-pyrimido[5,4-b]indole], the IC50 in the data set with B-CLL cells [2] was found to be 0.08 µM. Also, in the data set on caspases 3, 7 and 9, the “activation of caspases 3, 7 and 9” value was “activating caspases 3, 7, and 9”. The “total toxicity of the B-CLL cells” value in the data set on B-CLL cells [3] (combination with fludarabine, 10% toxic concentration of each partner) was “over 80%”. Also, the “toxicity of the B-CLL cells” value in the data set on B-CLL cells [3] (combination with fludarabine, each substance kills 20% of the cells in a separate test) was around 100%. The “effect of combination with fludarabine on the induction of apoptosis” value with B-CLL cells [3] (purified B-CLL cells (FIG. 4)) was “synergistic effect”. Moreover, the “cytotoxicity (apoptosis)” value in the data set on B-CLL cells [1] is given as “up to 100%”.

In the case of `Nc1nc(F)nc2c1ncn2[C@@H]1O[C@H](CO)[C@@H](O)[C@@H]1O` [Fludarabine, fludarabine, reference compound], in the data set on B-CLL cells [1] (ex vivo, blood of B-CLL patients, 24 h incubation), the “cytotoxicity (apoptosis)” value is at most 60%.

On to `CCOc1nc(N2CCNCC2)nc2c1[nH]c1cc(-c3cccnc3)ccc12` [4-ethoxy-2-(piperazin-1-yl)-7-(pyridin-3-yl)-5H-pyrimido[5,4-b]indole], for which the “cytotoxicity (apoptosis)” value with B-CLL cells [1] is given as “up to 100%”.

In the case of `CCOc1nc(N2CCNCC2)c2[nH]c3cc(-c4ccncc4)ccc3c2n1` [2-ethoxy-4-(piperazin-1-yl)-7-(pyridin-4-yl)-5H-pyrimido[5,4-b]indole], the “cytotoxicity (apoptosis)” value in the data set on B-CLL cells [1] is listed as “up to 100%”.

`CCOc1nc(N2CCN(C)CC2)nc2c1[nH]c1cc(-c3ccncc3)ccc12` [4-ethoxy-2-(4-methylpiperazin-1-yl)-7-(pyridin-4-yl)-5H-pyrimido[5,4-b]indole]: the “cytotoxicity (apoptosis)” value in the data set with B-CLL cells [1] is reported as “up to 100%”.

In the case of `CCOc1nc(N2CCNCC2)nc2c1[nH]c1cc(-c3ccc(OC)c(OC)c3)ccc12` [4-ethoxy-2-(piperazin-1-yl)-7-(3,4-dimethoxy-phenyl)-5H-pyrimido[5,4-b]indole], the “cytotoxicity (apoptosis)” value in the data set on B-CLL cells [1] was “up to 100%”.

`CCOc1nc(N2CCNCC2)nc2c1[nH]c1cc(-c3cccc(C(=O)O)c3)ccc12.Cl` [3-(4-ethoxy-2-(piperazin-1-yl)-5H-pyrimido[5,4-b]indol-7-yl)benzoic acid hydrochloride]: the “cytotoxicity (apoptosis)” value in the data set with B-CLL cells [1] was “up to 100%”.

Regarding `CCOc1nc(N2CCNCC2)nc2c1[nH]c1cc(-c3ccccc3N)cc(OC)c12` [Example 1, 2-(4-ethoxy-9-methoxy-2-(piperazin-1-yl)-5H-pyrimido[5,4-b]indol-7-yl)benzene amine], the “cytotoxicity (apoptosis)” value in the data set on B-CLL cells [1] is recorded as “up to 100%”.

With `CCOc1nc(N2CCNCC2)nc2c1[nH]c1cc(N3CCOCC3)ccc12` [4-ethoxy-7-morpholino-2-(piperazin-1-yl)-5H-pyrimido[5,4-b]indole], the “cytotoxicity (apoptosis)” value with B-CLL cells [1] is “up to 100%”.

Regarding `OCCOc1nc(N2CCNCC2)nc2c1[nH]c1cc(-c3ccncc3)ccc12` [2-{2-(piperazin-1-yl)-7-(pyridin-4-yl)-5H-pyrimido[5,4-b]indol-4-yloxy}ethanol], the “cytotoxicity (apoptosis)” value in the data set with B-CLL cells [1] was “up to 100%”.

Turning to `CCOc1nc(N2CCNCC2)nc2c1[nH]c1cc(-c3ccc(O)cc3)ccc12.Cl` [4-(4-ethoxy-2-(piperazin-1-yl)-5H-pyrimido[5,4-b]indol-7-yl)phenol-hydrochloride], the “cytotoxicity (apoptosis)” value in the data set on B-CLL cells [1] is listed as “up to 100%”.

Values taken from patent US8664233B2, “Substituted 5H-pyrimido[5,4-B]indoles, method for the production thereof and use thereof for treating non-solid malignant tumors of the blood-producing system” (The Medicines Company (Leipzig) GmbH, priority 2006, dated 2014).
